Laboratory results published in patent EP1667954B1, “BIPOLAR TRANS CAROTENOID SALTS AND THEIR USES” (Diffusion Pharmaceuticals LLC, priority 2003, dated 2005).

What was measured:
[1] = TSC by inhalation: drug in the blood stream after nebulizing into the trachea; format: in vivo; details: rats
Method: TSC has been given to rats via an inhalation route. Ten rats were given TSC directly into the lungs. This was done by inserting a tube into the trachea, and nebulizing 0.2 ml of TSC solution (TSC dissolved in dilute sodium carbonate solution) with about 3 to 6 mls of air. For all dosages studied (0.5-2 mg/kg), about 20% of the drug was present in the blood stream within one minute after it was given. For dosages of .8 -1.6 mg/kg the drug was present in the blood stream for a period of at least two hours.

[2] = Dissolution in normal saline and other salt solutions; format: physicochemical; details: no matter how much TSC is added (up to several milligrams per ml)
Method: Large volumes (as much as 3 times the estimated blood loss) of isotonic saline (also called normal saline) are infused as a treatment for hemorrhagic shock. The isotonic saline contains 9 g NaCl per liter of water so as not to disturb the ionic strength of the plasma once it is infused into the body. […] About 50% of the TSC dissolves in normal saline no matter how much TSC is added (up to several milligrams per ml), which means that undissolved particles of TSC are still present. […] The actual composition of the stock solution can be verified using UV-visible spectroscopy. This stock solution can be added to normal saline and the TSC remains dissolved.
This method can be used to dissolve a BTCS in other types of sodium chloride solutions, as well as in solutions of other salts such as KCl, Na2SO4, lactate, etc. Several, eg 1-3 mg/ml, can be put into solution in this manner.

physchem = details: water
Text: (§1) A dilute, eg .00001-.001M, solution of sodium carbonate can be added, dropwise, to deionized water until the pH is 8.0 (the pH of deionized water is usually 5-6). This only takes a few drops of the very dilute sodium carbonate per, say, 50 mls of deionized water.

[3] = Diffusivity of oxygen through aqueous solutions
Text: TSC increases survival in mammals following hypoxia, increases oxygen consumption following hypoxia or physiological stress, increases blood pressure following hypoxia, decreases blood acidosis (i.e., decreases blood base deficit, increases blood pH, and decreases plasma lactate level) following hypoxia, decreases organ damage (e.g. liver, kidney) following hypoxia. Thus, the compounds of the disclosure are useful for treating mammal (including human) diseases/conditions which are characterized by low oxygen (hypoxia) such as respiratory diseases, hemorrhagic shock and cardiovascular diseases, multiple organ failure (due to, for example, ARDS sepsis or hemorrhagic shock), chronic renal failure, atherosclerosis, emphysema, asthma, hypertension, cerebral edema, papillomas, spinal cord injuries, stroke, among others. The compounds of the disclosure are also useful for treating mammals at risk for the above-noted diseases/conditions. Other bipolar trans carotenoid salts have similar properties.

[4] = tested on: rat model of acute hypoxia; details: hypoxia with 10% oxygen, treatment after 10 minutes; only 2 of 6 control animals survived; cited from earlier work
[5] = Aqueous solubility and solution stability of TSC / BTCS
Text: as §1

[6] = tested on: hemorrhaged rats (55% blood volume); details: cited from earlier work
[7] = result in words; cited from earlier work

Row | Structure (SMILES) | drug present in the blood stream ([1]; inhalation (intratracheal nebulizing), all dosages 0.5-2 mg/kg, within one minute) | period the drug was present in the blood stream ([1]; inhalation, dosages of .8 -1.6 mg/kg) | amount of TSC that dissolves in normal saline [2] | solubility (physchem) | solubility (physchem; pH 8) | increase of diffusivity of oxygen through aqueous solutions [3] | survival and hemodynamic stability [4] | amount completely dissolved in sodium carbonate-deionized water solution ([5]; deionized water brought to pH 8.0 with dilute sodium carbonate) | stability of solutions in water ([5]; tap, distilled, deionized water) | survival ([6]; hemorrhaged rats (55% blood volume), bolus after hemorrhage, saline after another 30 minutes, all controls died) | Whole-body oxygen consumption ([6]; hemorrhaged rats, after about 15 minutes) | solubility in water [7]
1 | CC(/C=C/C=C(\C)C(=O)O)=C\C=C\C=C(C)\C=C\C=C(/C)C(=O)O [TSC, Trans sodium crocetinate] | about 20% | at least two | About 50% | ~10000 µg/mL | > 10000 µg/mL | about 30% | all survived with good hemodynamic stability for over two hours | around 10 mg/ml | only stable if the pH is adjusted so as to make the solution basic | All of the TSC-treated animals lived | 75 % of normal resting value | –
2 | CC(/C=C/C=C(\C)C(=O)O)=C\C=C\C=C(C)\C=C\C=C(/C)C(=O)O [crocetin] | – | – | – | – | – | – | – | – | – | – | – | only sparingly soluble
3 | CC(/C=C/C=C(\C)C(=O)O[C@@H]1O[C@H](CO[C@@H]2O[C@H](CO)[C@@H](O)[C@H](O)[C@H]2O)[C@@H](O)[C@H](O)[C@H]1O)=C\C=C\C=C(C)\C=C\C=C(/C)C(=O)O[C@@H]1O[C@H](CO[C@@H]2O[C@H](CO)[C@@H](O)[C@H](O)[C@H]2O)[C@@H](O)[C@H](O)[C@H]1O [crocin] | – | – | – | – | – | – | – | – | – | – | – | significant solubility
